Assay results published in patent publication US4539150A, “Benzothiazepine derivatives and their methods of preparation” (Mitsui Toatsu Chemicals, Inc., priority 1983, dated 1985).
Structures can show the parent of a compound that is named as a salt. Values belong to the compound of their own block, whether it stands above or below them.

Key:
[1] = target: T1, angiotensin converting enzyme (ACE) (Oryctolagus cuniculus, UniProt P12822); test: in vitro evaluation of inhibitory effects on ACE activity (method of Cushman); type: biochemical; details: ACE isolated from rabbit lungs; for IC50: Table 1, in vitro
T1 construct: Using ACE isolated from rabbit lungs; from tissue; host or cells: rabbit lungs
T1 sequence (P12822 34-1310): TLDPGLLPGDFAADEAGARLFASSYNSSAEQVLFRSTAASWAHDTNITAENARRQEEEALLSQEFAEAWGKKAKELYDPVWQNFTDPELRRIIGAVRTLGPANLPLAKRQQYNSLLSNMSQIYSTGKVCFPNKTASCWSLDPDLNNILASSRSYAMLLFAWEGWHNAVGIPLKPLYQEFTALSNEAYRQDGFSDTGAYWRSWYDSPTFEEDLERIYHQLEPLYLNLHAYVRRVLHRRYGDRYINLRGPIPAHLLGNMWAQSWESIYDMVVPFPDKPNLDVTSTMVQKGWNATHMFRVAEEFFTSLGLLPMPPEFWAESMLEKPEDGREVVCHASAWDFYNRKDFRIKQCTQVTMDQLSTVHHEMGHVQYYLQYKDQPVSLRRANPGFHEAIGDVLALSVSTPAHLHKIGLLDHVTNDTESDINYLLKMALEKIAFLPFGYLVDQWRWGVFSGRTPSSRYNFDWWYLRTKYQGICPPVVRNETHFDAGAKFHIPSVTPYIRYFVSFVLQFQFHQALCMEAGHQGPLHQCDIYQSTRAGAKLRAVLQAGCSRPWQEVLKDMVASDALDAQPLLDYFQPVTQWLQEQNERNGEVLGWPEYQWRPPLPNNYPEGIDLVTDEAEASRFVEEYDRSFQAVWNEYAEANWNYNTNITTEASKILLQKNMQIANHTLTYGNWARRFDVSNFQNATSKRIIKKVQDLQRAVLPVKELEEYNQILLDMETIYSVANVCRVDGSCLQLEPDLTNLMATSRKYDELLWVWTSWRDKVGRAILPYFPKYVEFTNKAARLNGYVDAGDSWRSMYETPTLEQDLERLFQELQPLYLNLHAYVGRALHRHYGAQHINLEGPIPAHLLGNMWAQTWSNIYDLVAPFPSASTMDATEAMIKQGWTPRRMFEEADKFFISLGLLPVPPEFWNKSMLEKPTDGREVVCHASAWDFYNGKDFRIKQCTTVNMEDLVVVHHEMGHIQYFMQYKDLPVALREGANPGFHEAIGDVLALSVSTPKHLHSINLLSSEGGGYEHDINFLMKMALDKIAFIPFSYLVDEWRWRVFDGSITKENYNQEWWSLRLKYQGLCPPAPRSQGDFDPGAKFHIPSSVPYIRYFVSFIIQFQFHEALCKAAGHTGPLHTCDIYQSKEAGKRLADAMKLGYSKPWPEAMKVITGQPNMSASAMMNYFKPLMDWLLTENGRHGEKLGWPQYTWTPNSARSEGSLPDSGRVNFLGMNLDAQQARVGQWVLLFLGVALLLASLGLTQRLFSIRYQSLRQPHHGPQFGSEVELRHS
Description: The efficacy of the compounds of the present invention can be tested by evaluating their inhibitory effects on the angiotensin converting enzyme (ACE). Using ACE isolated from rabbit lungs, in vitro evaluation of inhibitory effects on ACE activity was carried out according to the method of Cushman [Biochem. Pharmacol., 20, 1637(1971)]. […] Some of the compounds obtained in the other examples were also tested by in vitro evaluation of inhibitory effects on ACE activity and the results thus obtained are summarized in Table 1.

[2] = system: spontaneously occurring hypertensive rats (SHR); test: depressor effect after oral administration in spontaneously occurring hypertensive rats (SHR), systolic blood pressure of caudal artery; type: in vivo, rat; details: 50 mg/kg oral, unanesthetized male SHR
Description: The compounds of the present invention can also be tested by evaluating their depressor effects. Such evaluation was carried out by using spontaneously occurring hypertensive rats (SHR). Male rats, aged 20 weeks or more, were fasted for 17 hours. Then, under an unanesthetized condition, the systolic blood pressure of their caudal artery was nonsurgically measured before medication as well as 2,4,6 and 24 hours after medication. Test compounds were orally administered to groups of 3-5 rats showing a systolic blood pressure of 180 mmHg or above.
When the compound of Example 10 was orally administered in a dose of 50 mg/kg, the blood pressure was reduced by 26, 34 and 46 mmHg after the lapse of 2, 4 and 6 hours, respectively.

Structure (SMILES): O=C(O)CN1C(=O)C(NC(CCc2ccccc2)C(=O)O)CSc2ccccc21 (stereo not drawn) [Example 8, 3-(1-carboxy-3-phenylpropylamino)-5-carboxymethyl-2,3-dihydro-1,5-benzothiazepin-4(5H)-one]
inhibition at 0.01 µM ([1]; 0.01 μM, read-out: inhibited ACE activity): 14.8% | inhibition at 0.1 µM ([1]; 0.1 μM, read-out: inhibited ACE activity): 77.8%

Structure (SMILES): CCOC(=O)C(CCc1ccccc1)NC1CSc2ccccc2N(CC(=O)O)C1=O.Cl (stereo not drawn) [Example 10, 5-carboxymethyl-3-(1-ethoxycarbonyl-3-phenylpropylamino)-2,3-dihydro-1,5-benzothiazepin-4(5H)-one hydrochloride]
depressor effect, persistence ([2]; 24 hours): found to persist even after 24 hours | blood pressure was reduced by ([2]; after 2 hours): 26 mmHg | blood pressure was reduced by ([2]; after 4 hours): 34 mmHg | blood pressure was reduced by ([2]; after 6 hours): 46 mmHg

Structure (SMILES): CCOC(=O)C(C)NC1CSc2ccccc2N(CC(=O)O)C1=O (stereo not drawn) [Example 12, 5-carboxymethyl-3-(1-ethoxycarbonylethylamino)-2,3-dihydro-1,5-benzothiazepin-4(5H)-one hydrochloride]
IC50 [1]: 7000 nM

Structure (SMILES): CC(NC1CSc2ccccc2N(CC(=O)O)C1=O)C(=O)O (stereo not drawn) [Example 13, 5-carboxymethyl-3-(1-carboxyethylamino)-2,3-dihydro-1,5-benzothiazepin-4(5H)-one hydrochloride]
IC50 [1]: 470 nM

Results, then the compound that gave them:

IC50 [1]: > 100000 nM
Structure (SMILES): CCOC(=O)CNC1CSc2ccccc2N(CC(=O)O)C1=O (stereo not drawn) [Example 15, 5-carboxymethyl-3-ethoxycarbonylmethylamino-2,3-dihydro-1,5-benzothiazepin-4(5H)-one hydrochloride]

IC50 [1]: 8200 nM
Structure (SMILES): O=C(O)CNC1CSc2ccccc2N(CC(=O)O)C1=O (stereo not drawn) [Example 16, 5-carboxymethyl-3-carboxymethylamino-2,3-dihydro-1,5-benzothiazepin-4(5H)-one hydrochloride]

IC50 [1]: 160 nM
Structure (SMILES): CCCCCCCCC(NC1CSc2ccccc2N(CC(=O)O)C1=O)C(=O)OCC (stereo not drawn) [Example 18, 5-carboxymethyl-3-(1-ethoxycarbonylnonylamino)-2,3-dihydro-1,5-benzothiazepin-4(5H)-one]

IC50 [1]: 10 nM
Structure (SMILES): CCCCCCCCC(NC1CSc2ccccc2N(CC(=O)O)C1=O)C(=O)O (stereo not drawn) [Example 19, 5-carboxymethyl-3-(1-carboxynonylamino)-2,3-dihydro-1,5-benzothiazepin-4(5H)-one]
